Measurements taken from US20250011299A1, “PYRIDAZINYL AMINO DERIVATIVES AS ALK5 INHIBITORS” (CHIESI FARMACEUTICI S.P.A., priority 2021, published 2025).

Target: T1, human ALK5 (Homo sapiens, UniProt P36897)
T1 construct: human ALK5 (recombinant TGF β1 N-term GST-tagged, 80-end); GST (N); purchased
T1 sequence (P36897 80-503 limits assumed): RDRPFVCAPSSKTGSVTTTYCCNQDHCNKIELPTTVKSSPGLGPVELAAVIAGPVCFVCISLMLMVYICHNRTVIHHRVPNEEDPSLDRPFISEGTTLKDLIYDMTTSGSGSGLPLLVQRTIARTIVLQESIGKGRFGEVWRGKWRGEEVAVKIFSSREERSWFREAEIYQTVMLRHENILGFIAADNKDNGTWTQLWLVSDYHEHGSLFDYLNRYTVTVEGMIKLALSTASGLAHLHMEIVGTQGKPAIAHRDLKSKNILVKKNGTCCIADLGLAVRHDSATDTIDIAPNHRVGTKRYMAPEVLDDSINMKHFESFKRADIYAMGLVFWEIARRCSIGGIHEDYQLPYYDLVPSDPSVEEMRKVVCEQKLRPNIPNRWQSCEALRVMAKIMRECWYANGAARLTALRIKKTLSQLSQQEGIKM
Experiment: ADP-GLO Kinases assay of ALK5 enzymatic activity
Format: biochemical
Conditions: purified recombinant human ALK5, TGFβ1 peptide substrate, pIC50 converted to pKi by Cheng-Prusoff, high ATP protocol (15 μM) for very potent compounds, 25° C.
Summary of the method: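 Purified ALK5 preincubated 15 min with compound, then reacted with substrate and ATP; ADP formed read by ADP-Glo luminescence after 120 min or 60 min reaction, all steps at 25° C. 11-point concentration-response; pIC50 converted to pKi via Cheng-Prusoff.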

SMILES | Ki [pM]
O=C(CN1CCCNCC1)Nc1cc(Nc2cc(-c3cc(Cl)ccc3F)nnc2SCCO)ccn1 [Example 61, N-(4-{[6-(5-chloro-2-fluorophenyl)-3-[(2-hydroxyethyl)sulfanyl]pyridazin-4-yl]amino}pyridin-2-yl)-2-(1,4-diazepan-1-yl)acetamide] | ≤ 100
CN1CCN(CCC(=O)Nc2cc(Nc3cc(-c4cc(Cl)ccc4F)nnc3N3CC(C(=O)O)C3)ccn2)CC1 [Example 99, 1-[6-(5-chloro-2-fluorophenyl)-4-({2-[3-(4-methylpiperazin-1-yl)propanamido]pyridin-4-yl}amino)pyridazin-3-yl]azetidine-3-carboxylic acid] | 126 to 316
CN1CCN(CCC(=O)Nc2cc(Nc3cc(-c4cc(Cl)ccc4F)nnc3SCC3CCCC(=O)O3)ccn2)CC1 (racemic) [Example 204, N-(4-{[6-(5-chloro-2-fluorophenyl)-3-{[(6-oxooxan-2-yl)methyl]sulfanyl}pyridazin-4-yl]amino}pyridin-2-yl)-3-(4-methylpiperazin-1-yl)propanamide] | ≤ 100
CN1CCN([C@H]2C[C@H](C(=O)Nc3cc(Nc4cc(-c5cc(Cl)ccc5F)nnc4N(C)C)ccn3)C2)CC1 (single isomer, unassigned) [Example 96, trans N-(4-{[6-(5-chloro-2-fluorophenyl)-3-(dimethylamino)pyridazin-4-yl]amino}pyridin-2-yl)-3-(4-methylpiperazin-1-yl)cyclobutane-1-carboxamide] | ≤ 100
CN1CC2CCC1CN(CC(=O)Nc1cc(Nc3cc(-c4cc(Cl)ccc4F)nnc3SCCO)ccn1)C2 (centres unmarked) [Example 82, N-(4-{[6-(5-chloro-2-fluorophenyl)-3-[(2-hydroxyethyl)sulfanyl]pyridazin-4-yl]amino}pyridin-2-yl)-2-{6-methyl-3,6-diazabicyclo[3.2.2]nonan-3-yl}acetamide] | ≤ 100
COC(=O)C1CN(c2nnc(-c3cc(Cl)ccc3F)cc2Nc2ccnc(NC(=O)CCN3CCN(C)CC3)c2)C1 [Example 98, methyl 1-[6-(5-chloro-2-fluorophenyl)-4-({2-[3-(4-methylpiperazin-1-yl)propanamido]pyridin-4-yl}amino)pyridazin-3-yl]azetidine-3-carboxylate] | 126 to 316
COC(=O)[C@H]1CN(c2nnc(-c3cc(Cl)ccc3F)cc2Nc2ccnc(NC(=O)CCN3CCN(C)CC3)c2)CCO1 (stereo in doubt) [Example 133, methyl 4-[6-(5-chloro-2-fluorophenyl)-4-({2-[3-(4-methylpiperazin-1-yl)propanamido]pyridin-4-yl}amino)pyridazin-3-yl]morpholine-2-carboxylate] | 126 to 316
CN(C)CCOc1nnc(-c2cc(Cl)ccc2F)cc1Nc1ccnc2[nH]ncc12 [Example 42, 6-(5-chloro-2-fluorophenyl)-3-[2-(dimethylamino)ethoxy]-N-{1H-pyrazolo[3,4-b]pyridin-4-yl}pyridazin-4-amine] | 398 to 3160
CN1CCN([C@H]2C[C@@H](C(=O)Nc3cc(Nc4cc(-c5cc(Cl)ccc5F)nnc4N(C)CC4(C)CCOC4=O)ncn3)C2)CC1 (single isomer, unassigned; enantiomer 1) [Example 143, Cis Enantiomer 1 N-(6-{[6-(5-chloro-2-fluorophenyl)-3-{methyl[(3-methyl-2-oxooxolan-3-yl)methyl]amino}pyridazin-4-yl]amino}pyrimidin-4-yl)-3-(4-methylpiperazin-1-yl)cyclobutane-1-carboxamide] | 126 to 316
CC(C)OC(=O)C1CCN1c1nnc(-c2cc(Cl)ccc2F)cc1Nc1ccnc(NC(=O)CCN2C[C@@H](C)N[C@@H](C)C2)c1 (mixture of isomers) [Example 184, propan-2-yl 1-[6-(5-chloro-2-fluorophenyl)-4-({2-[3-(3,5-dimethylpiperazin-1-yl)propanamido]pyridin-4-yl}amino)pyridazin-3-yl]azetidine-2-carboxylate] | 398 to 3160
CN1CCN(CCC(=O)Nc2cc(Nc3cc(-c4cc(Cl)ccc4F)nnc3N3CCC3C(=O)O)ccn2)CC1 (centres unmarked) [Example 151, ammonium 1-[6-(5-chloro-2-fluorophenyl)-4-({2-[3-(4-methylpiperazin-1-yl)propanamido]pyridin-4-yl}amino)pyridazin-3-yl]azetidine-2-carboxylate] | 398 to 3160
CN1CCN(CCOc2ccc3c(Nc4cc(-c5cc(Cl)ccc5F)nnc4OCCN)ccnc3c2)CC1 [Example 5, N-[3-(2-aminoethoxy)-6-(5-chloro-2-fluorophenyl)pyridazin-4-yl]-7-[2-(4-methylpiperazin-1-yl)ethoxy]quinolin-4-amine] | 126 to 316
CN1CCN([C@H]2C[C@@H](C(=O)Nc3cc(Nc4cc(-c5cc(Cl)ccc5F)nnc4OC4CCOC4)ccn3)C2)CC1 (single isomer, unassigned) [Example 111, N-(4-{[6-(5-chloro-2-fluorophenyl)-3-(oxolan-3-yloxy)pyridazin-4-yl]amino}pyridin-2-yl)-3-(4-methylpiperazin-1-yl)cyclobutane-1-carboxamide] | ≤ 100
C[C@@H]1CN(CCC(=O)Nc2cc(Nc3cc(-c4cc(Cl)ccc4F)nnc3SCC[Si](C)(C)C)ncn2)C[C@H](C)N1 [Example 195, N-(6-{[6-(5-chloro-2-fluorophenyl)-3-{[2-(trimethylsilyl)ethyl]sulfanyl}pyridazin-4-yl]amino}pyrimidin-4-yl)-3-(3,5-dimethylpiperazin-1-yl)propanamide] | 126 to 316
COc1nnc(-c2cc(Cl)ccc2F)cc1Nc1ccc2ncsc2c1 [Example C1, [6-(5-Chloro-2-fluorophenyl)-3-methoxypyridazin-4-yl]-1,3-benzothiazol-6-amine, reference compound] | 6310

Next, values leading:

Ki [pM] | SMILES
≤ 100 | CNc1nnc(-c2cc(Cl)ccc2F)cc1Nc1ccnc(NC(=O)CCN2CCN(C)CC2)c1 [Example 29]
126 to 316 | CN1CC(COc2nnc(-c3cc(Cl)ccc3F)cc2Nc2ccnc(NC(=O)C3CC3)c2)C1 [Example 44, N-(4-{[6-(5-chloro-2-fluorophenyl)-3-[(1-methylazetidin-3-yl)methoxy]pyridazin-4-yl]amino}pyridin-2-yl)cyclopropanecarboxamide]
126 to 316 | CN1CCN([C@H]2C[C@H](C(=O)Nc3cc(Nc4cc(-c5cc(Cl)ccc5F)nnc4OC4CCOC4)ccn3)C2)CC1 (single isomer, unassigned) [Example 114, N-(4-{[6-(5-chloro-2-fluorophenyl)-3-(oxolan-3-yloxy)pyridazin-4-yl]amino}pyridin-2-yl)-3-(4-methylpiperazin-1-yl)cyclobutane-1-carboxamide]
398 to 3160 | Nc1cc(Nc2cc(-c3cc(Cl)ccc3F)nnc2OCCO)ccn1 [Example 43, 2-({4-[(2-aminopyridin-4-yl)amino]-6-(5-chloro-2-fluorophenyl)pyridazin-3-yl}oxy)ethan-1-ol]
≤ 100 | CN1CCN(CCC(=O)Nc2cc(Nc3cc(-c4cc(Cl)ccc4F)nnc3N(C)CC3(C)CCOC3=O)ccn2)CC1 (single isomer, unassigned) [Example 128, N-(4-{[6-(5-chloro-2-fluorophenyl)-3-{methyl[(3-methyl-2-oxooxolan-3-yl)methyl]amino}pyridazin-4-yl]amino}pyridin-2-yl)-3-(4-methylpiperazin-1-yl)propanamide]
398 to 3160 | COCCOc1nnc(-c2cc(Cl)ccc2F)cc1Nc1ccnc(N)c1 [Example 69, N4-[6-(5-chloro-2-fluorophenyl)-3-(2-methoxyethoxy)pyridazin-4-yl]pyridine-2,4-diamine]
≤ 100 | CN1CCN(CCC(=O)Nc2cc(Nc3cc(-c4cc(Cl)ccc4F)nnc3OCC3COC(=O)O3)ccn2)CC1 (centres unmarked) [Example 79, N-(4-{[6-(5-chloro-2-fluorophenyl)-3-[(2-oxo-1,3-dioxolan-4-yl)methoxy]pyridazin-4-yl]amino}pyridin-2-yl)-3-(4-methylpiperazin-1-yl)propanamide]
≤ 100 | C[C@@H]1CN(CCC(=O)Nc2cc(Nc3cc(-c4cc(Cl)ccc4F)nnc3SCCO)ncn2)C[C@H](C)N1 [Example 177, N-(6-{[6-(5-chloro-2-fluorophenyl)-3-[(2-hydroxyethyl)sulfanyl]pyridazin-4-yl]amino}pyrimidin-4-yl)-3-(3,5-dimethylpiperazin-1-yl)propanamide]
126 to 316 | CN1CCN(CC23CC(C(=O)Nc4cc(Nc5cc(-c6cc(Cl)ccc6F)nnc5SCCO)ncn4)(C2)C3)CC1 [Example 182, N-(6-{[6-(5-chloro-2-fluorophenyl)-3-[(2-hydroxyethyl)sulfanyl]pyridazin-4-yl]amino}pyrimidin-4-yl)-3-[(4-methylpiperazin-1-yl)methyl]bicyclo[1.1.1]pentane-1-carboxamide]
126 to 316 | CN1CCCN([C@H]2C[C@@H](C(=O)Nc3cc(Nc4cc(-c5cc(Cl)ccc5F)nnc4SCCO)ccn3)C2)CC1 [Example 155, Cis N-(4-{[6-(5-chloro-2-fluorophenyl)-3-[(2-hydroxyethyl)sulfanyl]pyridazin-4-yl]amino}pyridin-2-yl)-3-(4-methyl-1,4-diazepan-1-yl)cyclobutane-1-carboxamide]
398 to 3160 | CN(C)CCOc1nnc(-c2cc(Cl)ccc2F)cc1Nc1ccnc2[nH]ccc12 [Example 41, 6-(5-chloro-2-fluorophenyl)-3-[2-(dimethylamino)ethoxy]-N-{1H-pyrrolo[2,3-b]pyridin-4-yl}pyridazin-4-amine]
